Where a chain is given by its changes, count along the chain named. pIC50: −log10 of the molar value.
Columns and labels:
[1] = target: T1, PPO2 R128A ΔG210 (Amaranthus tuberculatus, UniProt Q0NZW9, DEL210/R128A); assay: biochemical; format: biochemical
T1 sequence (Q0NZW9 with tags, fused parts or gaps R128A/DEL210): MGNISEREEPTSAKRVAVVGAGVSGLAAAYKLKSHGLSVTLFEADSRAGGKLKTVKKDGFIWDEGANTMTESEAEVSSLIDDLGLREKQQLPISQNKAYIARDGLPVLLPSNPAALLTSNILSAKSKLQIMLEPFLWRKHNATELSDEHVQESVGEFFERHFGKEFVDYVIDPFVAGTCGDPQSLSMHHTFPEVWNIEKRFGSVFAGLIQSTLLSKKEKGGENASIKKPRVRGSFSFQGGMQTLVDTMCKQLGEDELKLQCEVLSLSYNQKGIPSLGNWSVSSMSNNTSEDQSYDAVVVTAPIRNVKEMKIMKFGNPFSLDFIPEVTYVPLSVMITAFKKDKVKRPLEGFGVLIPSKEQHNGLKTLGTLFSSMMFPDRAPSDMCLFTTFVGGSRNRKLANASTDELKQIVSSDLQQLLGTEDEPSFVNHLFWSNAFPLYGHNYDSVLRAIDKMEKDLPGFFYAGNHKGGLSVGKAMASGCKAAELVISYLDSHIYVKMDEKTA

[2] = target: T2, PPO2 R128T ΔG210 (Amaranthus tuberculatus, UniProt Q0NZW9, DEL210-210/R128T); format: biochemical
T2 sequence (Q0NZW9 with tags, fused parts or gaps R128T/DEL210-210): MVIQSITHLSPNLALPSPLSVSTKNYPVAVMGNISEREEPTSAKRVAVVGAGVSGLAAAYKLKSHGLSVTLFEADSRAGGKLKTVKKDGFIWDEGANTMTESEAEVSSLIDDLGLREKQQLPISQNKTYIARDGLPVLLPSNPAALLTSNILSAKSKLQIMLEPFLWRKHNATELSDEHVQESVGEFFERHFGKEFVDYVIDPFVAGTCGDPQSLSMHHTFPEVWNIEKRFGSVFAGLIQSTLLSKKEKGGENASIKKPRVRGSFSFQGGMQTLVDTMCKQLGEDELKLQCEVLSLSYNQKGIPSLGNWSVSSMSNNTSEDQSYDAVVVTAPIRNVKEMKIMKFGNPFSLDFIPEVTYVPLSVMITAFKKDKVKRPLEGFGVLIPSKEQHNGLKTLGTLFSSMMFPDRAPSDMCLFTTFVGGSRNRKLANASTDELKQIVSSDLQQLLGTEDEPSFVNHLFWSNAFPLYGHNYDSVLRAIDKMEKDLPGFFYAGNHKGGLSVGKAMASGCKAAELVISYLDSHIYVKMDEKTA

[3] = target: T3, PPO2 G399A (Amaranthus tuberculatus, UniProt Q0NZW9, G398A); assay: biochemical; format: biochemical
T3 sequence (Q0NZW9 31-534 G398A): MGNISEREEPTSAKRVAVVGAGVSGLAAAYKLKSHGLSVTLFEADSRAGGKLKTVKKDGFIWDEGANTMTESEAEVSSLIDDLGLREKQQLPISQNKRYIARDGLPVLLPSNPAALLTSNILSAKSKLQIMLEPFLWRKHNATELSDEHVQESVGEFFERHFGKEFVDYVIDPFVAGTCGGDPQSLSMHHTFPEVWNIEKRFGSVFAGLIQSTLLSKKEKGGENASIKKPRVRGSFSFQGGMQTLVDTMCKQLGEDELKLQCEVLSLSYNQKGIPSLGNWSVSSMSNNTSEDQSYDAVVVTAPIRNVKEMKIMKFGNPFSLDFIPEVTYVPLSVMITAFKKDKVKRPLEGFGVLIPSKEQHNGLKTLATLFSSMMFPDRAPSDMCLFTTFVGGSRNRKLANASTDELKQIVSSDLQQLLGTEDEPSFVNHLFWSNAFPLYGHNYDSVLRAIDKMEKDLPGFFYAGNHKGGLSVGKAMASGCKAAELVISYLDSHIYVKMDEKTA

[4] = target: T4, PPO2 R128A ΔG210 in Escherichia coli hemG (Amaranthus tuberculatus, UniProt Q0NZW9, DEL210/R128A, cells depend on it); format: cell-based; conditions: read-out: IC50 (E. coli hemG growth)
T4 sequence (Q0NZW9 with tags, fused parts or gaps R128A/DEL210): T1 sequence (Q0NZW9 with tags, fused parts or gaps R128A/DEL210)

[5] = target: T5, PPO2 R128H ΔG210 in Escherichia coli hemG (Amaranthus tuberculatus, UniProt Q0NZW9, DEL210/R128H, cells depend on it); format: cell-based; conditions: read-out: IC50 (E. coli hemG growth)
T5 sequence (Q0NZW9 with tags, fused parts or gaps R128H/DEL210): T2 sequence (Q0NZW9 with tags, fused parts or gaps R128T/DEL210-210) with T128H

[6] = target: T6, PPO2 R128T ΔG210 in Escherichia coli hemG (Amaranthus tuberculatus, UniProt Q0NZW9, DEL210-210/R128T, cells depend on it); format: cell-based; conditions: read-out: IC50 (E. coli hemG growth)
T6 sequence (Q0NZW9 with tags, fused parts or gaps R128T/DEL210-210): T2 sequence (Q0NZW9 with tags, fused parts or gaps R128T/DEL210-210)

[7] = target: PPO2 wild-type (Amaranthus tuberculatus, UniProt Q0NZW9); assay: in vitro inhibition assay, recombinant PPO2 enzyme; format: biochemical
PPO2 wild-type, sequence (Q0NZW9 entry or part of it): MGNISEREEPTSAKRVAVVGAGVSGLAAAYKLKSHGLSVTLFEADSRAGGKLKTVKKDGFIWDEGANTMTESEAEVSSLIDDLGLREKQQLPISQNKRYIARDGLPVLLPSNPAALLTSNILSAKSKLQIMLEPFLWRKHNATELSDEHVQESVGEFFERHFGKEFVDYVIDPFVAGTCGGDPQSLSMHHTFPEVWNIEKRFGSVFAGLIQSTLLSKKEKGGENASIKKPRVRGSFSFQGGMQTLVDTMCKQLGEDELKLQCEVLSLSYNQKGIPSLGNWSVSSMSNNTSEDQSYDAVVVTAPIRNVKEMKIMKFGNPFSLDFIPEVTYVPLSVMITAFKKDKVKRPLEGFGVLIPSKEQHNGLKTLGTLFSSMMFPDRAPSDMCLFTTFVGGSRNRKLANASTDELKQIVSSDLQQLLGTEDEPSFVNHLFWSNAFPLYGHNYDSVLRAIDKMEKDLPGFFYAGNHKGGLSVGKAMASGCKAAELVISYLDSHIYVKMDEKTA

CS(=O)(=O)NC(=O)c1cc(Oc2ccc(C(F)(F)F)cc2Cl)ccc1[N+](=O)[O-] [Fomesafen, fomesafen]
pIC50 [1]: < 5.00 | pIC50 [2]: < 5.00 | pIC50 [3]: < 5.00

CCOC(=O)C(C)OC(=O)c1cc(Oc2ccc(C(F)(F)F)cc2Cl)ccc1[N+](=O)[O-] (centres unmarked) [Lactofen, lactofen]
pIC50 [2]: 5.41 | pIC50 [3]: 5.80 | pIC50 [4]: < 5.00 | pIC50 [5]: < 5.00 | pIC50 [6]: < 5.00

CC(C)N(C)S(=O)(=O)NC(=O)c1cc(-n2c(=O)cc(C(F)(F)F)n(C)c2=O)c(F)cc1Cl [Saflufenacil, saflufenacil]
pIC50 [1]: < 5.00 | pIC50 [2]: < 5.00 | pIC50 [3]: 6.20 | pIC50 [4]: < 5.00 | pIC50 [5]: < 5.00 | pIC50 [6]: < 5.00

C#CCN1C(=O)C(F)(F)Oc2cc(F)c(-n3c(=O)n(C)c(=S)n(C)c3=O)cc21 [Trifludimoxazin, trifludimoxazin]
Resistance factor [7]: 1 | pIC50 [1]: 7.48 | Resistance factor [1]: 135 | pIC50 [2]: 7.13 | Resistance factor [2]: 305 | pIC50 [3]: 8.93 | pIC50 [4]: 7.33 | pIC50 [5]: 7.05 | pIC50 [6]: 7.17

— paper PMC10092844, “Inhibition profile of trifludimoxazin towards PPO2 target site mutations” (Pest Management Science, 2022)
